Earlier results as cited in patent US11730619B2, “Systems and methods for determining failure of intragastric devices” (RESHAPE LIFESCIENCES INC., priority 2015, dated 2023).
Where a name gives a salt, the structure may show the parent alone. Read-outs that look alike come from different tables or passages of the source. Blank lines part the entries; values can stand above or below the compound they belong to.

Columns and labels:
[1] = for Solubility: solvent not given
[2] = cell wraps: Generally well-tolerated in patients; Merck Index
[3] = pH 3
[4] = Meng et al. 2013

Compound: Cc1cc2nc3[nH]c(=O)[nH]c(=O)c3nc2cc1C [Lumichrome]
Solubility in hot water ([1]; hot water, Merck Index): Sparingly soluble in hot water | Solubility [1]: poor solubility

Compound: Cc1cc2nc3c(=O)[nH]c(=O)nc-3n(C[C@H](O)[C@H](O)[C@H](O)CO)c2cc1C [B vitamins (e.g. Riboflavin), Riboflavin]
Solubility in water ([1]; Merck Index): Solubility: 1 g in 3 L g in 3 L water

Compound: Betalain [Betalain (including betanin)]
pH range of stability [3]: Stable between pH 3

Compound: CN(C)CCC=C1c2ccccc2CCc2ccccc21 [Amitriptyline Hydrochloride]
LD50 (rats) (rat; rats, second of two values, Merck Index): 380 mg/kg | Solubility in water ([1]; water, Merck Index): Salt is freely soluble in

Compound: O=C1/C(=C2\Nc3ccc(S(=O)(=O)[O-])cc3C2=O)Nc2ccc(S(=O)(=O)[O-])cc21.[Na+].[Na+] [Indigo carmine]
LD50 (rat, oral) (rat; rat, oral, Baker MSDS sheet): 2000 mg/kg (Baker MSDS sheet)

Compound: CN(C)c1ccc2c(c1)Sc1cc(N(C)C)ccc1N2 [Leukomethylene blue]
Excretion in urine ([4]; stabilized in the urine): excreted mostly unaltered

Compound: O=C(O)c1cc(O)c2c(c1)[C@H]([C@H]1c3cc(C(=O)O)cc(O)c3C(=O)c3c(O[C@@H]4O[C@H](CO)[C@@H](O)[C@H](O)[C@H]4O)cccc31)c1cccc(O[C@@H]3O[C@H](CO)[C@@H](O)[C@H](O)[C@H]3O)c1C2=O [Sennoside A]
Solubility in water ([1]; water, Merck Index): insoluble in water.

Compound: O=C(O)c1cc(O)c2c(c1)[C@@H]([C@H]1c3cc(C(=O)O)cc(O)c3C(=O)c3c(O[C@@H]4O[C@H](CO)[C@@H](O)[C@H](O)[C@H]4O)cccc31)c1cccc(O[C@@H]3O[C@H](CO)[C@@H](O)[C@H](O)[C@H]3O)c1C2=O [Sennoside B]
Solubility in water relative to Sennoside A ([1]; cell wraps: more soluble in water than Sennoside A, Merck): Sennoside B is more

More lines, main results first:

Solubility: parts water in which 1 part is soluble ([1]; 1 part soluble in 1000 parts water, Merck Index): 1 part soluble in 1000 parts water
Compound: Nc1nc(N)c2nc(-c3ccccc3)c(N)nc2n1 [Triamterene]
Tolerability in patients [2]: Generally well-

Conversion on passage through the gastrointestinal tract [4]: reduced to leukomethylene blue
Compound: CN(C)c1ccc2nc3ccc(=[N+](C)C)cc-3sc2c1 [methylene blue]

Solubility [1]: poor solubility | Solubility in water ([1]; water, Merck Index): Very sparingly soluble in water
Compound: Cc1cc2nc3c(=O)[nH]c(=O)nc-3n(C)c2cc1C [Lumiflavine]

Water solubility ([1]; @ 20° C., Merck Index): Water soluble 2.5 g/100 g/100 mL
Compound: COc1ccccc1OCC(O)COC(N)=O (centres unmarked) [Methocarbamol]
Tolerability in patients [2]: Generally well-
